Assay results published in ChEMBL document CHEMBL6078730, “Exploring the antiproliferative and proapoptotic activities of new pyridopyrimidine derivatives and their analogs” (Bioorg Med Chem, 2025).
In brackets after ≈: the same amount, converted by molar mass. Activity calls are given as the source filed them. No cut-off for these calls is given here.

Assays:
[1] = system: T47D; test: Antiproliferative activity against human T47D cells assessed as inhibition of cell proliferation incubated for 24 hrs by MTT assay; format: functional, cell-based
[2] = system: T47D; test: Antiproliferative activity against human T47D cells assessed as reduction in cell growth inhibition at 10 uM incubated for 24 hrs by MTT assay relative to control; format: functional; conditions: read-out: GI
[3] = Cytotoxicity against human MCF-10A cells assessed as reduction in cell viability at 10 uM incubated for 24 hrs by MTT assay; format: toxicity, cell-based
[4] = Selectivity index, ratio of IC50 for human MCF-10A cells to IC50 for human T47D cells; format: toxicity; conditions: MCF-10A cells versus T47D cells, read-out: Ratio IC50
[5] = system: T47D; test: Induction of cell cycle arrest in human T47D cells assessed as increase in accumulation of cells at G2-M phase at IC50 concentration incubated for 48 hrs by […]PI staining based flow cytometry analysis (reference value: 17.28%); format: functional
[6] = system: T47D; test: Induction of cell cycle arrest in human T47D cells assessed as decrease in accumulation of cells at G0-G1 phase at IC50 concentration incubated for 48 hrs by […]PI staining based flow cytometry analysis (reference value: 52.84%); format: functional; set-up: scale not given: the % may be the effect or the level left
[7] = system: T47D; test: Induction of cell cycle arrest in human T47D cells assessed as decrease in accumulation of cells at S phase at IC50 concentration incubated for 48 hrs by […]PI staining based flow cytometry analysis (reference value: 29.88%); format: functional; set-up: scale not given: the % may be the effect or the level left
[8] = system: T47D; test: Induction of apoptosis in human T47D cells assessed as decrease in viable cells at IC50 concentration incubated for 48 hrs by AnnexinV-FITC/PI staining based flow cytometry relative to control; format: functional, cell-based
[9] = system: T47D; test: Induction of apoptosis in human T47D cells assessed as increase in early apoptotic cells at IC50 concentration incubated for 48 hrs by AnnexinV-FITC/PI staining based flow cytometry (reference value: 0.64%); format: functional
[10] = system: T47D; test: Induction of apoptosis in human T47D cells assessed as increase in late apoptotic cells at IC50 concentration incubated for 48 hrs by AnnexinV-FITC/PI staining based flow cytometry (reference value: 0.13%); format: functional
[11] = system: T47D; test: Induction of apoptosis in human T47D cells assessed as increase in necrotic cells at IC50 concentration incubated for 48 hrs by AnnexinV-FITC/PI staining based flow cytometry (reference value: 1.42%); format: functional
[12] = system: T47D; test: Induction of apoptosis in human T47D cells assessed as fold increase in ratio of apoptotic cells incubated for 48 hrs by AnnexinV-FITC/PI staining based flow cytometry; format: functional
[13] = system: T47D; test: Induction of apoptosis in human T47D cells assessed as increase in p53 expression at IC50 concentration incubated for 48 hrs by Western blotting analysis; format: functional, cell-based
[14] = system: T47D; test: Induction of apoptosis in human T47D cells assessed as increase in Bax expression at IC50 concentration incubated for 48 hrs by Western blotting analysis; format: functional, cell-based
[15] = system: T47D; test: Induction of apoptosis in human T47D cells assessed as inhibition in Bcl2 expression at IC50 concentration incubated for 48 hrs by Western blotting analysis; format: functional, cell-based
[16] = system: T47D; test: Induction of apoptosis in human T47D cells assessed as increase in Bax/Bcl-2 ratio at IC50 concentration incubated for 48 hrs by Western blotting analysis; format: functional, cell-based
[17] = Upregulation of Bax expression in human T47D cells assessed as fold change at IC50 concentration incubated for 48 hrs by Western blotting analysis; format: functional
[18] = Downregulation of Bcl-2 expression in human T47D cells assessed as fold change at IC50 concentration incubated for 48 hrs by Western blotting analysis; format: functional
[19] = target: Phosphatidylinositol 4,5-bisphosphate 3-kinase catalytic subunit alpha isoform (Homo sapiens, UniProt P42336); test: Inhibition of PI3K alpha (unknown origin) using PIP2 as substrate preincubated for 10 mins followed by substrate addition and measured after 1 hrs by colorimetric analysis
Chain of Phosphatidylinositol 4,5-bisphosphate 3-kinase catalytic subunit alpha isoform (P42336 whole entry, canonical isoform): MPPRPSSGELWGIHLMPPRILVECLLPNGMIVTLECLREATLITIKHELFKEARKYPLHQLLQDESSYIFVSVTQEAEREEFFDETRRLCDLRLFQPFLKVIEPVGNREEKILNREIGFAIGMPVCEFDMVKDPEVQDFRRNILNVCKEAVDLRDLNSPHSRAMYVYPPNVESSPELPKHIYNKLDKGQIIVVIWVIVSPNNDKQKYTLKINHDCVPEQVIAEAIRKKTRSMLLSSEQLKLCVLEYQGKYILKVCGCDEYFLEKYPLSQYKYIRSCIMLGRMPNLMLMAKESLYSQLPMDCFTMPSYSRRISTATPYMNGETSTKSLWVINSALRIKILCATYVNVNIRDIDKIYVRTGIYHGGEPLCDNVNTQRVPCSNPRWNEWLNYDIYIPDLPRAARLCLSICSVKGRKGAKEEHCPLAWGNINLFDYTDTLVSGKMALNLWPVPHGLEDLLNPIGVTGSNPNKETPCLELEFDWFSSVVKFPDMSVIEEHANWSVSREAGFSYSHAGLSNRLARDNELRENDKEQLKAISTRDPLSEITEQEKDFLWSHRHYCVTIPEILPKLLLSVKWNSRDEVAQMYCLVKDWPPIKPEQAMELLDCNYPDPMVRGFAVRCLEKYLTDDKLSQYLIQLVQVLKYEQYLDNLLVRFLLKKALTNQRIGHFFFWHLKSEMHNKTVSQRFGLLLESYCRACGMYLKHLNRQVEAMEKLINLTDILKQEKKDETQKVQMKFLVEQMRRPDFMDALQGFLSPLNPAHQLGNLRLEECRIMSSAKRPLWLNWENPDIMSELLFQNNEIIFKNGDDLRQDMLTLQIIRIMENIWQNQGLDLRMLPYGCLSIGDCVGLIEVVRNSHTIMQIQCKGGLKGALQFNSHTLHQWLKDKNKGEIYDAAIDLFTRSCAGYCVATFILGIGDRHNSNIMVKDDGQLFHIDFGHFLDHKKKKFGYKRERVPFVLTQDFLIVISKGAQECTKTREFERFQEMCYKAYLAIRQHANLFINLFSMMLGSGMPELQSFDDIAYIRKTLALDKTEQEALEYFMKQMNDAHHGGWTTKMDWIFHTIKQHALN

[20] = target: Phosphatidylinositol 4,5-bisphosphate 3-kinase catalytic subunit beta isoform (Homo sapiens, UniProt P42338); test: Inhibition of PI3K beta (unknown origin) using PIP2 as substrate preincubated for 10 mins followed by substrate addition and measured after 1 hrs by colorimetric analysis
Chain of Phosphatidylinositol 4,5-bisphosphate 3-kinase catalytic subunit beta isoform (P42338 whole entry, canonical isoform): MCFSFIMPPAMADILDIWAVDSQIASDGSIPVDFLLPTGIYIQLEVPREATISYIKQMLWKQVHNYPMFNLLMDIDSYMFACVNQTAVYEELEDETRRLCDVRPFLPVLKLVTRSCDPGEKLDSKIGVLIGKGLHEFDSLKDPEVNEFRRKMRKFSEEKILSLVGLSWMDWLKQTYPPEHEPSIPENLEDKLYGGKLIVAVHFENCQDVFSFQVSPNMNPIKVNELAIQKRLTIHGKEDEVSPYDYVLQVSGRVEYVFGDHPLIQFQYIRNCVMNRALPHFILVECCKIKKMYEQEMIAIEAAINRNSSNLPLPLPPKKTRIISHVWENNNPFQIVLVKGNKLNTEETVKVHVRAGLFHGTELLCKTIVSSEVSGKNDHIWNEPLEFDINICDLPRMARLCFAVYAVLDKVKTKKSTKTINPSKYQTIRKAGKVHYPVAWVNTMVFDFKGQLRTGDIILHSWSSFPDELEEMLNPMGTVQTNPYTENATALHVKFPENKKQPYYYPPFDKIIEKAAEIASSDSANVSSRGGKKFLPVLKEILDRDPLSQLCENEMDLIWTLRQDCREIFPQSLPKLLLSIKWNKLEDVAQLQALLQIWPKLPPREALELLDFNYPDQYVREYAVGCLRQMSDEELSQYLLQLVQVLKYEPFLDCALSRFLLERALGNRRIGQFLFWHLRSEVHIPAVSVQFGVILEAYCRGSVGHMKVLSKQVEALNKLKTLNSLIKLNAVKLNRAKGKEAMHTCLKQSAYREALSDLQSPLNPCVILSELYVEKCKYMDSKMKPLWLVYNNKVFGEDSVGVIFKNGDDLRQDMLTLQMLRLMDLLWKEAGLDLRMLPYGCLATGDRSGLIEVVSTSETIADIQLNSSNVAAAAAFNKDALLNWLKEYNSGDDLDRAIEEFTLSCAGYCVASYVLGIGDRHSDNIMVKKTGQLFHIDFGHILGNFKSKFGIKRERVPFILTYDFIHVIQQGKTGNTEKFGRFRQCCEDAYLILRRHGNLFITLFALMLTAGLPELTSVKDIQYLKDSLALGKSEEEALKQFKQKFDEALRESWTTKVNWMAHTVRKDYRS

[21] = target: T1, Phosphatidylinositol 4,5-bisphosphate 3-kinase catalytic subunit delta isoform (Homo sapiens, UniProt O00329); test: Inhibition of PI3K delta (unknown origin) using PIP2 as substrate preincubated for 10 mins followed by substrate addition and measured after 1 hrs by colorimetric analysis
T1 sequence (O00329 whole entry): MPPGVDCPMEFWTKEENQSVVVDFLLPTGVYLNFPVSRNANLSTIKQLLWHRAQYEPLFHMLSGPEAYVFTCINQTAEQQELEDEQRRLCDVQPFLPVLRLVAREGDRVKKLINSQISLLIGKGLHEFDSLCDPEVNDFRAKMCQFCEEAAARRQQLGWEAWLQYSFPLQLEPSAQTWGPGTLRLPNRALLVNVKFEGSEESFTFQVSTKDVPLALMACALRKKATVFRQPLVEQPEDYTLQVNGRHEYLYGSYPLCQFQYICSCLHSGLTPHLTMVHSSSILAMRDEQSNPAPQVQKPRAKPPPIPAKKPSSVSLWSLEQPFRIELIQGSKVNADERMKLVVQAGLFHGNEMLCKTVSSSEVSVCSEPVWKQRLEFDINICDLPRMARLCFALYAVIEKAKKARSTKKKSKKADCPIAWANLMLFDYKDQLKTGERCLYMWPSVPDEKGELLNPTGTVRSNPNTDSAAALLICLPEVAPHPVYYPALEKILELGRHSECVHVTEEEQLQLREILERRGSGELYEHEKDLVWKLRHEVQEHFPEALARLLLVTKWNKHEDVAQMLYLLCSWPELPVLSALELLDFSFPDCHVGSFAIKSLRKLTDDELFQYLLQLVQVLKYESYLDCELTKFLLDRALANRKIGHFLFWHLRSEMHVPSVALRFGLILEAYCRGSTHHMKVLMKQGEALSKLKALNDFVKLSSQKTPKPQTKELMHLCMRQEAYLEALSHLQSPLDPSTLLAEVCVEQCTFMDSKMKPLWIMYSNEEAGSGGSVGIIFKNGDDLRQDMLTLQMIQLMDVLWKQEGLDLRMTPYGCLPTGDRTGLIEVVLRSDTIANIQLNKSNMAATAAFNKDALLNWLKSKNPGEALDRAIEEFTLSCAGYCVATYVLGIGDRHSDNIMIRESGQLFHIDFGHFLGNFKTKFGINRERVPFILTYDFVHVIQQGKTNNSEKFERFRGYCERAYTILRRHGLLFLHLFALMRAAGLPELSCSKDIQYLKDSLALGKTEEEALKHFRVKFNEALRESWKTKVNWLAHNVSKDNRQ

[22] = target: Phosphatidylinositol 4,5-bisphosphate 3-kinase catalytic subunit gamma isoform (Homo sapiens, UniProt P48736); test: Inhibition of PI3K gamma (unknown origin) using PIP2 as substrate preincubated for 10 mins followed by substrate addition and measured after 1 hrs by colorimetric analysis
Chain of Phosphatidylinositol 4,5-bisphosphate 3-kinase catalytic subunit gamma isoform (P48736 whole entry, canonical isoform): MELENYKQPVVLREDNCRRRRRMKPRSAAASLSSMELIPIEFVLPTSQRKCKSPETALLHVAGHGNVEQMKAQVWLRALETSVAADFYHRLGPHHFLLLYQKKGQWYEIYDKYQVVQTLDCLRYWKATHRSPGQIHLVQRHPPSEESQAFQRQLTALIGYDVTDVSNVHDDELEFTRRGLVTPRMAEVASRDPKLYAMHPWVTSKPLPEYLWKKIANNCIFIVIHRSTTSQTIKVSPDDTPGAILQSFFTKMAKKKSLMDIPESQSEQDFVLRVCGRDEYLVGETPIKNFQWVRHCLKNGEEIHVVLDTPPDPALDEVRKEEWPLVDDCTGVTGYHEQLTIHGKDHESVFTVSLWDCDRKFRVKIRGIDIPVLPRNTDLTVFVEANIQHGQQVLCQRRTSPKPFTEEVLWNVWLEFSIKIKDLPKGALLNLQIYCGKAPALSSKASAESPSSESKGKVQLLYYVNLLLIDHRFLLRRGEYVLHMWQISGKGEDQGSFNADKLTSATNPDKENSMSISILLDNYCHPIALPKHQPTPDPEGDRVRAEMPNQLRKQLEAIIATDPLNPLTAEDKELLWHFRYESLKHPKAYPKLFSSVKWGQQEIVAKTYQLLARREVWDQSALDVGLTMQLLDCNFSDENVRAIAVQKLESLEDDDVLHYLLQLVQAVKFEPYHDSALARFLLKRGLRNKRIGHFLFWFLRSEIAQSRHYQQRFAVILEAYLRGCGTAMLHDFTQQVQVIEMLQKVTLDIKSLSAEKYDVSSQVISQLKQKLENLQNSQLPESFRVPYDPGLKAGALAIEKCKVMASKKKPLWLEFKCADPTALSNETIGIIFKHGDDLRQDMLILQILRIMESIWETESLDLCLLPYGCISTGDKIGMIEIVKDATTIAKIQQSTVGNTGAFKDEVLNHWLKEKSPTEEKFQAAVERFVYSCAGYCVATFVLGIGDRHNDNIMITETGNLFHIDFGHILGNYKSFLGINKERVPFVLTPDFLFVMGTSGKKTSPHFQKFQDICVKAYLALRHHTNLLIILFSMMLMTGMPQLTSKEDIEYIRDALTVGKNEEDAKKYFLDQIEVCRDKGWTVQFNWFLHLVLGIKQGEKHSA

[23] = system: MDA-MB-435; test: Antiproliferative activity against human MDA-MB-435 cells assessed as reduction in cell growth inhibition at 10 uM incubated for 24 hrs by MTT assay relative to control; format: functional; conditions: read-out: GI
[24] = system: NCI-H23; test: Antiproliferative activity against human NCI-H23 cells assessed as reduction in cell growth inhibition at 10 uM incubated for 24 hrs by MTT assay relative to control; format: functional; conditions: read-out: GI

SMILES: O=c1[nH]c(=S)[nH]c2nc(-c3ccc(Cl)cc3)ccc12
- IC50 [1]: 1.46 µg/mL (≈ 5.04 µM)
- inhibition of growth at 10 µM [2]: 81%
- IC50 at 24 h [3]: 422 µg/mL (≈ 1460 µM)
- selectivity ratio [4]: 289
- Activity [5]: 28.02%
- Activity [6]: 45.11%
- Activity [7]: 26.87%
- Activity [8]: Active
- Activity [9]: 18.83%
- Activity [10]: 11.51%
- Activity [11]: 6.88%
- fold change (FC) [12]: ~37
- Activity [13]: Active
- Activity [14]: Active
- Activity [15]: Active
- Activity [16]: Active
- fold change (FC) [17]: 2.38
- fold change (FC) [18]: 0.69
- IC50 [19]: 0.632 µM
- IC50 [20]: 7.69 µM
- IC50 [21]: 40.9 µM
- IC50 [22]: 2.12 µM

SMILES: Cc1ccc(-c2ccc3c(=O)[nH]c(=S)[nH]c3n2)cc1
- IC50 [1]: 18.4 µg/mL (≈ 68.4 µM)
- inhibition of growth at 10 µM [2]: 81%

SMILES: O=C(C1=CNC(=S)NC1c1ccc(F)cc1)c1ccc(F)cc1 (stereo not given)
- inhibition of growth at 10 µM [23]: 63%

SMILES: O=c1[nH]c(=S)[nH]c2nc(-c3ccccc3)ccc12
- IC50 [1]: 16.1 µg/mL (≈ 63 µM)
- inhibition of growth at 10 µM [2]: 50%

SMILES: O=C(C1=CNC(=S)NC1c1ccc(F)cc1)c1ccc(Cl)cc1 (stereo not given)
- inhibition of growth at 10 µM [23]: 63%

SMILES: Cc1ccc(C(=O)C2=CNC(=S)NC2c2ccc(O)cc2)cc1 (stereo not given)
- inhibition of growth at 10 µM [23]: 184%

SMILES: O=c1[nH]c(=S)[nH]c2nc(-c3ccc([N+](=O)[O-])cc3)ccc12
- IC50 [1]: 22.1 µg/mL (≈ 73.7 µM)
- inhibition of growth at 10 µM [2]: 81%

SMILES: O=c1[nH]c(=S)[nH]c2nc(-c3ccc(Br)cc3)ccc12
- IC50 [1]: 9.62 µg/mL (≈ 28.8 µM)
- inhibition of growth at 10 µM [2]: 81%

SMILES: O=C(C1=CNC(=S)NC1c1ccc(F)cc1)c1ccccc1 (stereo not given)
- inhibition of growth at 10 µM [23]: 63%

SMILES: O=c1[nH]c(=S)[nH]c2nc(-c3ccc(F)cc3)ccc12
- IC50 [1]: 6.09 µg/mL (≈ 22.3 µM)
- inhibition of growth at 10 µM [2]: 81%

SMILES: Cc1ccc(C(=O)C2=CNC(=O)NC2c2ccc(O)cc2)cc1 (stereo not given)
- inhibition of growth at 10 µM [24]: 114%

SMILES: CS(=O)(=O)N1CCN(Cc2cc3nc(-c4cccc5[nH]ncc45)nc(N4CCOCC4)c3s2)CC1 [PICTILISIB]
- IC50 [1]: 2.56 µg/mL (≈ 4.98 µM)

SMILES: COc1ccc(-c2ccc3c(=O)[nH]c(=S)[nH]c3n2)cc1
- IC50 [1]: 52.7 µg/mL (≈ 185 µM)
- inhibition of growth at 10 µM [2]: 81%
